Measured values from publication PMC7162861, “Synthesis, cytotoxicity, pharmacokinetic profile, binding with DNA and BSA of new imidazo[1,2-a]pyrazine-benzo[d]imidazol-5-yl hybrids” (Scientific Reports, 2020).

Legend:
A549/ATCC = assay: NCI cytotoxicity screen, Non-Small Cell Lung Cancer panel; format: cell-based; details: Homo sapiens; A549/ATCC; single dose 10 µM; negative = lethal; read-out: Percent growth inhibition
Procedure: (§1) Cytotoxicity was performed at National Cancer Institute (NCI), Bethesda, USA as per their protocols.

EXVX = assay: as above; format: cell-based; details: Homo sapiens; EXVX; single dose 10 µM; negative = lethal; read-out: Percent growth inhibition
Procedure: as §1

HOP-62 = assay: as above; format: cell-based; details: Homo sapiens, single dose 10 µM, negative = lethal, read-out: Percent growth inhibition
Procedure: as §1

HOP-92 = assay: as above; format: cell-based; details: Homo sapiens, single dose 10 µM, negative = lethal, read-out: Percent growth inhibition
Procedure: as §1

NCI-H460 = assay: as above; format: cell-based; details: Homo sapiens, single dose 10 µM, negative = lethal, read-out: Percent growth inhibition
Procedure: as §1

COLO 205 = assay: NCI cytotoxicity screen, Colon Cancer panel; format: cell-based; details: Homo sapiens, single dose 10 µM, negative = lethal, read-out: Percent growth inhibition
Procedure: as §1

HCT-15 = assay: NCI cytotoxicity screen, Colon Cancer panel; format: cell-based; details: Homo sapiens, single dose 10 µM, negative = lethal, read-out: Percent growth inhibition
Procedure: as §1

HCC-2998 = assay: NCI cytotoxicity screen, Colon Cancer panel; format: cell-based, human; details: Homo sapiens; HCC-2998; single dose 10 µM; negative = lethal; read-out: Percent growth inhibition
Procedure: as §1

KM12 = assay: NCI cytotoxicity screen, Colon Cancer panel; format: cell-based, human; details: Homo sapiens, single dose 10 µM, negative = lethal, read-out: Percent growth inhibition
Procedure: as §1

SW-620 = assay: NCI cytotoxicity screen, Colon Cancer panel; format: cell-based, human; details: Homo sapiens, single dose 10 µM, negative = lethal, read-out: Percent growth inhibition
Procedure: as §1

SF-268 = assay: NCI cytotoxicity screen, CNS Cancer panel; format: cell-based; details: Homo sapiens, single dose 10 µM, negative = lethal, read-out: Percent growth inhibition
Procedure: as §1

SF-295 = assay: NCI cytotoxicity screen, CNS Cancer panel; format: cell-based; details: Homo sapiens, single dose 10 µM, negative = lethal, read-out: Percent growth inhibition
Procedure: as §1

SF-539 = assay: NCI cytotoxicity screen, CNS Cancer panel; format: cell-based; details: Homo sapiens, single dose 10 µM, negative = lethal, read-out: Percent growth inhibition
Procedure: as §1

SNB-19 = assay: NCI cytotoxicity screen, CNS Cancer panel; format: cell-based; details: Homo sapiens; SNB-19; single dose 10 µM; negative = lethal; read-out: Percent growth inhibition
Procedure: as §1

SNB-75 = assay: NCI cytotoxicity screen, CNS Cancer panel; format: cell-based; details: Homo sapiens, single dose 10 µM, negative = lethal, read-out: Percent growth inhibition
Procedure: as §1

U251 = assay: NCI cytotoxicity screen, CNS Cancer panel; format: cell-based; details: Homo sapiens, U-251; U251; single dose 10 µM; negative = lethal; read-out: Percent growth inhibition
Procedure: as §1

LOX IMVI = assay: NCI cytotoxicity screen, Melanoma panel; format: cell-based, human; details: Homo sapiens, single dose 10 µM, negative = lethal, read-out: Percent growth inhibition
Procedure: as §1

M14 = assay: NCI cytotoxicity screen, Melanoma panel; format: cell-based, human; details: Homo sapiens, single dose 10 µM, negative = lethal, read-out: Percent growth inhibition
Procedure: as §1

UACC-62 = assay: NCI cytotoxicity screen, Melanoma panel; format: cell-based, human; details: Homo sapiens, single dose 10 µM, negative = lethal, read-out: Percent growth inhibition
Procedure: as §1

MALME-3M = assay: NCI cytotoxicity screen, Melanoma panel; format: cell-based; details: Homo sapiens; MALME-3M; single dose 10 µM; negative = lethal; read-out: Percent growth inhibition
Procedure: as §1

MDA-MB-435 = assay: NCI cytotoxicity screen, Melanoma panel; format: cell-based; details: Homo sapiens, MDA-MB-435, read-out: Percent growth inhibition
Procedure: as §1

SK-MEL-28 = assay: NCI cytotoxicity screen, Melanoma panel; format: cell-based; details: Homo sapiens, single dose 10 µM, negative = lethal, read-out: Percent growth inhibition
Procedure: as §1

SK-MEL-2 = assay: NCI cytotoxicity screen, Melanoma panel; format: cell-based; details: Homo sapiens, single dose 10 µM, negative = lethal, read-out: Percent growth inhibition
Procedure: as §1

SK-MEL-5 = assay: NCI cytotoxicity screen, Melanoma panel; format: cell-based; details: Homo sapiens, single dose 10 µM, negative = lethal, read-out: Percent growth inhibition
Procedure: as §1

UACC-257 = assay: NCI cytotoxicity screen, Melanoma panel; format: cell-based; details: Homo sapiens, single dose 10 µM, negative = lethal, read-out: Percent growth inhibition
Procedure: as §1

IGROV1 = assay: NCI cytotoxicity screen, Ovarian Cancer panel; format: cell-based; details: Homo sapiens, IGROV-1, single dose 10 µM, negative = lethal, read-out: Percent growth inhibition
Procedure: as §1

NCI/ADR-RES = assay: NCI cytotoxicity screen, Ovarian Cancer panel; format: cell-based; details: Homo sapiens, single dose 10 µM, negative = lethal, read-out: Percent growth inhibition
Procedure: as §1

OVCAR-4 = assay: NCI cytotoxicity screen, Ovarian Cancer panel; format: cell-based; details: Homo sapiens; OVCAR-4; single dose 10 µM; negative = lethal; read-out: Percent growth inhibition
Procedure: as §1

OVCAR-5 = assay: NCI cytotoxicity screen, Ovarian Cancer panel; format: cell-based; details: Homo sapiens, single dose 10 µM, negative = lethal, read-out: Percent growth inhibition
Procedure: as §1

OVCAR-8 = assay: NCI cytotoxicity screen, Ovarian Cancer panel; format: cell-based; details: Homo sapiens, single dose 10 µM, negative = lethal, read-out: Percent growth inhibition
Procedure: as §1

SK-OV-3 = assay: NCI cytotoxicity screen, Ovarian Cancer panel; format: cell-based; details: Homo sapiens, single dose 10 µM, negative = lethal, read-out: Percent growth inhibition
Procedure: as §1

OVCAR-3 = assay: NCI cytotoxicity screen, Ovarian Cancer panel; format: cell-based, human; details: Homo sapiens; OVCAR-3; single dose 10 µM; negative = lethal; read-out: Percent growth inhibition
Procedure: as §1

786-0 = assay: NCI cytotoxicity screen, Renal Cancer panel; format: cell-based, human; details: Homo sapiens, single dose 10 µM, negative = lethal, read-out: Percent growth inhibition
Procedure: as §1

TK-10 = assay: NCI cytotoxicity screen, Renal Cancer panel; format: cell-based, human; details: Homo sapiens, single dose 10 µM, negative = lethal, read-out: Percent growth inhibition
Procedure: as §1

A498 = assay: NCI cytotoxicity screen, Renal Cancer panel; format: cell-based; details: Homo sapiens, single dose 10 µM, negative = lethal, read-out: Percent growth inhibition
Procedure: as §1

ACHN = assay: NCI cytotoxicity screen, Renal Cancer panel; format: cell-based; details: Homo sapiens, single dose 10 µM, negative = lethal, read-out: Percent growth inhibition
Procedure: as §1

RXF 393 = assay: NCI cytotoxicity screen, Renal Cancer panel; format: cell-based; details: Homo sapiens, single dose 10 µM, negative = lethal, read-out: Percent growth inhibition
Procedure: as §1

SN12C = assay: NCI cytotoxicity screen, Renal Cancer panel; format: cell-based; details: Homo sapiens, single dose 10 µM, negative = lethal, read-out: Percent growth inhibition
Procedure: as §1

UO-31 = assay: NCI cytotoxicity screen, Renal Cancer panel; format: cell-based; details: Homo sapiens, single dose 10 µM, negative = lethal, read-out: Percent growth inhibition
Procedure: as §1

DU-145 = assay: NCI cytotoxicity screen, Prostate Cancer panel; format: cell-based, human; details: Homo sapiens, single dose 10 µM, negative = lethal, read-out: Percent growth inhibition
Procedure: as §1

PC-3 = assay: NCI cytotoxicity screen, Prostate Cancer panel; format: cell-based, human; details: Homo sapiens, single dose 10 µM, negative = lethal, read-out: Percent growth inhibition
Procedure: as §1

[1] = Experimental log P, shake-flask method; format: physicochemical; details: n-octanol/phosphate buffer pH 7.4, read-out: Exp. Log P
Procedure: Partition coefficients or experimental log P values of all synthesized compounds (9–23, 30 and 31) were calculated using the shake-flask method. Log P values were determined using n-octanol and phosphate buffer (pH = 7.4) at 10:1 ratio of volumes. Stock solutions (10^−3 M) of compounds were prepared in DMSO. Glass vials were used to make final solutions i.e. stock solution (250 µL) and phosphate buffer (125 µL). To record the absorbance, wavelength was selected based on λmax of the respective compound. Initial absorbance (Ai) for every compound was noted consuming the stock solution in the buffer phase. Now added n-octanol to every vial and shaken well using a mechanical shaker for 50 minutes. To get separation of both phases, glass vials were centrifuged for 35 min. at 2500 rpm. Then, the layer of octanol was separated from glass vial. The final absorbance (Af) of each compound was recorded by using the buffer layer. The values of P for compounds were determined by the following equation (Eq. 8):8 P=Ai−Af/Af×Vw/Vo

c1ccc(-c2cn3ccnc3c(-c3ccc4c(c3)ncn4C3CCCCC3)n2)cc1 [Compound 9, 8-(1-cyclohexyl-1H-benzo[d]imidazol-5-yl)-6-phenylimidazo[1,2-a]pyrazine]
inhibition at 10 µM (A549/ATCC): 9%
inhibition at 10 µM (EXVX): 2.51%
inhibition at 10 µM (HOP-62): 12.9%
inhibition at 10 µM (HOP-92): 10.9%
inhibition at 10 µM (NCI-H460): < 1%
inhibition at 10 µM (COLO 205): 0.28%
inhibition at 10 µM (HCT-15): 19.1%
inhibition at 10 µM (HCC-2998): < 1%
inhibition at 10 µM (KM12): 5.7%
inhibition at 10 µM (SW-620): < 1%
inhibition at 10 µM (SF-268): 1.33%
inhibition at 10 µM (SF-295): < 1%
inhibition at 10 µM (SF-539): 2.17%
inhibition at 10 µM (SNB-19): 1.72%
inhibition at 10 µM (SNB-75): 5.65%
inhibition at 10 µM (U251): 4.44%
inhibition at 10 µM (LOX IMVI): 4.86%
inhibition at 10 µM (M14): 1.61%
inhibition at 10 µM (UACC-62): 2.01%
inhibition at 10 µM (MALME-3M): < 1%
inhibition at 10 µM (MDA-MB-435): 0.53%
inhibition at 10 µM (SK-MEL-28): < 1%
inhibition at 10 µM (SK-MEL-2): < 1%
inhibition at 10 µM (SK-MEL-5): 5.71%
inhibition at 10 µM (UACC-257): < 1%
inhibition at 10 µM (IGROV1): < 1%
inhibition at 10 µM (NCI/ADR-RES): < 1%
inhibition at 10 µM (OVCAR-4): < 1%
inhibition at 10 µM (OVCAR-5): < 1%
inhibition at 10 µM (OVCAR-8): < 1%
inhibition at 10 µM (SK-OV-3): < 1%
inhibition at 10 µM (OVCAR-3): < 1%
inhibition at 10 µM (786-0): 8.24%
inhibition at 10 µM (TK-10): < 1%
inhibition at 10 µM (A498): < 1%
inhibition at 10 µM (ACHN): < 1%
inhibition at 10 µM (RXF 393): 23.3%
inhibition at 10 µM (SN12C): 4.83%
inhibition at 10 µM (UO-31): 20.9%
inhibition at 10 µM (DU-145): 2.64%
inhibition at 10 µM (PC-3): 13.5%
logP [1]: 1.59
melting point: 195 to 198 °C
